From PMC3874184 (Nucleic Acids Research, 2013) come the findings set out here.

Assay [1] has as its target spTrm10 (spTrm10_FL) (Schizosaccharomyces pombe, UniProt O14214, N209A). Description: biochemical.
The target of assay [2] is T1, spTrm10 (spTrm10_FL) (Schizosaccharomyces pombe, UniProt O14214).
T1 sequence (O14214 1-304): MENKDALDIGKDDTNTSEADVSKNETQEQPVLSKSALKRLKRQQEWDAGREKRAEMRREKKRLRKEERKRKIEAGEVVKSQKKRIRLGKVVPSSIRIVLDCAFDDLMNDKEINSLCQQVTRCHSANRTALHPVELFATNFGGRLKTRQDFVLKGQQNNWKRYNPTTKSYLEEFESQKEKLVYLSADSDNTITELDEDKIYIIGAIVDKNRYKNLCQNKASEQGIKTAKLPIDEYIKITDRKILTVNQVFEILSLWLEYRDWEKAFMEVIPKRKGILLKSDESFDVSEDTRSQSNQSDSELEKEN
Description: biochemical.

Assay [3] addresses T1, spTrm10 (spTrm10_FL). Put plainly: X-ray crystal structure, […] Å. The settings on record: SAM-binding pocket in C-terminal trefoil knot; 1:3 protein:SAH.
Another assay addresses T2, scTrm10_84 (Saccharomyces cerevisiae, UniProt Q12400).
T2 sequence (Q12400 84-276): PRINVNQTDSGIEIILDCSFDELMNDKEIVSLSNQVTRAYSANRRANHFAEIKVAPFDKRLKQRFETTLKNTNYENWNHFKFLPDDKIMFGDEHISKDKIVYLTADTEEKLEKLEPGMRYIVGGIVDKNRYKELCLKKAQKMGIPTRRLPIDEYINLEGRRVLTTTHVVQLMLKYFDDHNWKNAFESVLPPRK
Put plainly: X-ray crystal structure, […] Å. Conditions: SAM-binding pocket in C-terminal trefoil knot; 1:3 protein:SAH.

spTrm10 (spTrm10_FL) (Schizosaccharomyces pombe, UniProt O14214, N209A), sequence (O14214 whole entry N209A): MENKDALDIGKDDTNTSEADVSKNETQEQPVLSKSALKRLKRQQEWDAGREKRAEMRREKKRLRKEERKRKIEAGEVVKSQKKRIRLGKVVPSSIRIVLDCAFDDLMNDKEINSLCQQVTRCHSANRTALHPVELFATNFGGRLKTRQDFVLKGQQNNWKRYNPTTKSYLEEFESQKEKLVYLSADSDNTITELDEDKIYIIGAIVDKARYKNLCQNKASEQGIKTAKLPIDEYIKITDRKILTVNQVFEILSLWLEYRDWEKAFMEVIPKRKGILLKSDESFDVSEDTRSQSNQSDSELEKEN

`C[S+](CC[C@H](N)C(=O)O)C[C@H]1O[C@@H](n2cnc3c(N)ncnc32)[C@H](O)[C@@H]1O` (stereo partly shown) [SAM]: the Kd (as a rule, the constant that tells how readily two partners part at equilibrium) at spTrm10 (spTrm10_FL) [1] worked out at 83.3 µM; at spTrm10 (spTrm10_FL) [2] it was 4.46 µM.
On to `Nc1ncnc2c1ncn2[C@@H]1O[C@H](CSCC[C@H](N)C(=O)O)[C@@H](O)[C@H]1O` [SAH], for which the “X-ray crystal structure, 2.04 Å” value on spTrm10 (spTrm10_FL) [3] is on record as 4JWH for spTrm10-FL-SAH. Besides, the “X-ray crystal structure, 1.76 Å” value at scTrm10_84 is 4JWJ for scTrm10_84-SAH.
